# Experimental data published in ChEMBL document CHEMBL3797052 (Eur J Med Chem, 2016).
# Molecular target: CYP2C19 (Homo sapiens, UniProt P33261)
# Test: Inhibition of recombinant human CYP2C19 assessed as remaining enzyme activity at 10 uM after 5 mins in presence of NADP by fluorescence plate reader analysis
# Assay type: ADME
# Settings: read-out: Activity
# Sequence of CYP2C19 (P33261 whole entry): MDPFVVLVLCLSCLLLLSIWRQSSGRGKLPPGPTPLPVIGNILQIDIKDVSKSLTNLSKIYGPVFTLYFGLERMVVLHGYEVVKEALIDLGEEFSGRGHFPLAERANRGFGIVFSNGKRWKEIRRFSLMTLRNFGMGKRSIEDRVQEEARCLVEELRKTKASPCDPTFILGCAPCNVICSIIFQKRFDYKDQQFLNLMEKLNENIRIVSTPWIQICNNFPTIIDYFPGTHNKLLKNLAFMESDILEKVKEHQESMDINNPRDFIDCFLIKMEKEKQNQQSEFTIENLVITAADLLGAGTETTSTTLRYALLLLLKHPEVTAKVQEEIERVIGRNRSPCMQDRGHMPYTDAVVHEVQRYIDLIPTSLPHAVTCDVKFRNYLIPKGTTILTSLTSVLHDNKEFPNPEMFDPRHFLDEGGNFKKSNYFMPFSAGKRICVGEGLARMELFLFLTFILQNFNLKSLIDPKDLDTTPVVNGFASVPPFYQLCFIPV
row,Compound,"activity at 5 min, 10 µM [%]"
1,CNC(=O)c1cc(Oc2ccc3nc(NC(=O)c4cc(C(F)(F)F)cc(C(F)(F)F)c4)sc3c2)ccn1,10.3

# System: NCI-H322M
# Test: Antiproliferative activity against human NCI-H322M cells assessed as cell growth at 10^-8 M after 48 hrs by sulforhodamine B assay
# Assay type: functional
# Settings: read-out: Activity
row,Compound,growth at 0.01 µM [%]
1,CNC(=O)c1cc(Oc2ccc3nc(NC(=O)c4cc(C(F)(F)F)cc(C(F)(F)F)c4)sc3c2)ccn1,91

# System: EKVX
# Test: Antiproliferative activity against human EKVX cells assessed as cell growth at 10^-6 M after 48 hrs by sulforhodamine B assay
# Assay type: functional
# Settings: read-out: Activity
row,Compound,growth at 1 µM [%]
1,CNC(=O)c1cc(Oc2ccc3nc(NC(=O)c4cc(C(F)(F)F)cc(C(F)(F)F)c4)sc3c2)ccn1,90

# System: not listed separately
# Test: Antiproliferative activity against human SF295 cells assessed as cell growth at 10^-7 M after 48 hrs by sulforhodamine B assay
# Assay type: functional
# Settings: SF-295, 48 h, read-out: Activity
row,Compound,growth at 0.1 µM [%]
1,CNC(=O)c1cc(Oc2ccc3nc(NC(=O)c4cc(C(F)(F)F)cc(C(F)(F)F)c4)sc3c2)ccn1,89

# System: not listed separately
# Test: Antiproliferative activity against human RPMI8226 cells assessed as cell growth at 10^-8 M after 48 hrs by sulforhodamine B assay
# Assay type: functional
# Settings: RPMI-8226, 48 h, read-out: Activity
row,Compound,growth at 0.01 µM [%]
1,CNC(=O)c1cc(Oc2ccc3nc(NC(=O)c4cc(C(F)(F)F)cc(C(F)(F)F)c4)sc3c2)ccn1,97

# System: not listed separately
# Test: Antiproliferative activity against human MOLT4 cells assessed as cell growth at 10^-4 M after 48 hrs by sulforhodamine B assay
# Assay type: functional
# Settings: MOLT-4, 48 h, read-out: Activity
row,Compound,growth at 100 µM [%]
1,CNC(=O)c1cc(Oc2ccc3nc(NC(=O)c4cc(C(F)(F)F)cc(C(F)(F)F)c4)sc3c2)ccn1,-7

# System: not listed separately
# Test: Antiproliferative activity against human UO31 cells assessed as cell growth at 10^-8 M after 48 hrs by sulforhodamine B assay
# Assay type: functional
# Settings: UO-31, 48 h, read-out: Activity
row,Compound,growth at 0.01 µM [%]
1,CNC(=O)c1cc(Oc2ccc3nc(NC(=O)c4cc(C(F)(F)F)cc(C(F)(F)F)c4)sc3c2)ccn1,85

# System: not listed separately
# Test: Antiproliferative activity against human SNB75 cells assessed as cell growth at 10^-8 M after 48 hrs by sulforhodamine B assay
# Assay type: functional
# Settings: SNB-75, 48 h, read-out: Activity
row,Compound,growth at 0.01 µM [%]
1,CNC(=O)c1cc(Oc2ccc3nc(NC(=O)c4cc(C(F)(F)F)cc(C(F)(F)F)c4)sc3c2)ccn1,82

# System: not listed separately
# Test: Antiproliferative activity against human RXF393 cells assessed as cell growth at 10^-8 M after 48 hrs by sulforhodamine B assay
# Assay type: functional
# Settings: RXF 393, 48 h, read-out: Activity
row,Compound,growth at 0.01 µM [%]
1,CNC(=O)c1cc(Oc2ccc3nc(NC(=O)c4cc(C(F)(F)F)cc(C(F)(F)F)c4)sc3c2)ccn1,95

# System: MDA-MB-231
# Test: Antiproliferative activity against human MDA-MB-231 cells assessed as growth inhibition after 48 hrs by sulforhodamine B assay
# Assay type: functional
# Settings: MDA-MB-231, 48 h
Compound,GI50 [µM],TGI [µM]
CNC(=O)c1cc(Oc2ccc3nc(NC(=O)c4cc(C(F)(F)F)cc(C(F)(F)F)c4)sc3c2)ccn1,2.88,6.63

# Same assay, conditions: MDA-MB-231, 48 h, read-out: LC50 (the source's name)
row,Compound,CC50 [µM]
1,CNC(=O)c1cc(Oc2ccc3nc(NC(=O)c4cc(C(F)(F)F)cc(C(F)(F)F)c4)sc3c2)ccn1,39.8

# System: not listed separately
# Test: Antiproliferative activity against human HL-60(TB) cells assessed as cell growth at 10^-6 M after 48 hrs by sulforhodamine B assay
# Assay type: functional
# Settings: HL-60, 48 h, read-out: Activity
row,Compound,growth at 1 µM [%]
1,CNC(=O)c1cc(Oc2ccc3nc(NC(=O)c4cc(C(F)(F)F)cc(C(F)(F)F)c4)sc3c2)ccn1,114

# System: NCI-H23
# Test: Antiproliferative activity against human NCI-H23 cells assessed as cell growth at 10^-6 M after 48 hrs by sulforhodamine B assay
# Assay type: functional
# Settings: NCI-H23, 48 h, read-out: Activity
row,Compound,growth at 1 µM [%]
1,CNC(=O)c1cc(Oc2ccc3nc(NC(=O)c4cc(C(F)(F)F)cc(C(F)(F)F)c4)sc3c2)ccn1,89

# System: ACHN
# Test: Antiproliferative activity against human ACHN cells assessed as growth inhibition after 48 hrs by sulforhodamine B assay
# Assay type: functional
# Settings: not given
Compound,GI50 [µM],LC50 [µM],TGI [µM]
CNC(=O)c1cc(Oc2ccc3nc(NC(=O)c4cc(C(F)(F)F)cc(C(F)(F)F)c4)sc3c2)ccn1,3.26,43.2,11.8

# System: not listed separately
# Test: Antiproliferative activity against human UACC257 cells assessed as cell growth at 10^-4 M after 48 hrs by sulforhodamine B assay
# Assay type: functional
# Settings: UACC-257, 48 h, read-out: Activity
row,Compound,growth at 100 µM [%]
1,CNC(=O)c1cc(Oc2ccc3nc(NC(=O)c4cc(C(F)(F)F)cc(C(F)(F)F)c4)sc3c2)ccn1,-45

# System: EKVX
# Test: Antiproliferative activity against human EKVX cells assessed as cell growth at 10^-8 M after 48 hrs by sulforhodamine B assay
# Assay type: functional
# Settings: read-out: Activity
row,Compound,growth at 0.01 µM [%]
1,CNC(=O)c1cc(Oc2ccc3nc(NC(=O)c4cc(C(F)(F)F)cc(C(F)(F)F)c4)sc3c2)ccn1,94

# System: not listed separately
# Test: Antiproliferative activity against human TK10 cells assessed as cell growth at 10^-8 M after 48 hrs by sulforhodamine B assay
# Assay type: functional
# Settings: TK-10, 48 h, read-out: Activity
row,Compound,growth at 0.01 µM [%]
1,CNC(=O)c1cc(Oc2ccc3nc(NC(=O)c4cc(C(F)(F)F)cc(C(F)(F)F)c4)sc3c2)ccn1,95

# System: not listed separately
# Test: Antiproliferative activity against human HOP62 cells assessed as cell growth at 10^-7 M after 48 hrs by sulforhodamine B assay
# Assay type: functional
# Settings: HOP-62, 48 h, read-out: Activity
row,Compound,growth at 0.1 µM [%]
1,CNC(=O)c1cc(Oc2ccc3nc(NC(=O)c4cc(C(F)(F)F)cc(C(F)(F)F)c4)sc3c2)ccn1,92

# System: NCI-H460
# Test: Antiproliferative activity against human NCI-H460 cells assessed as cell growth at 10^-6 M after 48 hrs by sulforhodamine B assay
# Assay type: functional
# Settings: NCI-H460, 48 h, read-out: Activity
row,Compound,growth at 1 µM [%]
1,CNC(=O)c1cc(Oc2ccc3nc(NC(=O)c4cc(C(F)(F)F)cc(C(F)(F)F)c4)sc3c2)ccn1,101

# System: not listed separately
# Test: Antiproliferative activity against human HCT15 cells assessed as cell growth at 10^-8 M after 48 hrs by sulforhodamine B assay
# Assay type: functional
# Settings: HCT-15, 48 h, read-out: Activity
row,Compound,growth at 0.01 µM [%]
1,CNC(=O)c1cc(Oc2ccc3nc(NC(=O)c4cc(C(F)(F)F)cc(C(F)(F)F)c4)sc3c2)ccn1,104

# System: not listed separately
# Test: Antiproliferative activity against human SNB19 cells assessed as cell growth at 10^-8 M after 48 hrs by sulforhodamine B assay
# Assay type: functional
# Settings: SNB-19, 48 h, read-out: Activity
row,Compound,growth at 0.01 µM [%]
1,CNC(=O)c1cc(Oc2ccc3nc(NC(=O)c4cc(C(F)(F)F)cc(C(F)(F)F)c4)sc3c2)ccn1,98

# System: not listed separately
# Test: Antiproliferative activity against human OVCAR5 cells assessed as cell growth at 10^-6 M after 48 hrs by sulforhodamine B assay
# Assay type: functional
# Settings: OVCAR-5, 48 h, read-out: Activity
row,Compound,growth at 1 µM [%]
1,CNC(=O)c1cc(Oc2ccc3nc(NC(=O)c4cc(C(F)(F)F)cc(C(F)(F)F)c4)sc3c2)ccn1,80
